Assays:
Format in all cases: in vivo
fusarium disease = assay: Wheat field treatment: damage from fusarium disease; conditions: untreated 6
Procedure: (§1) Spray tank was filled with approximately two-thirds of the total volume of water required. The amount of Powder 1 or Powder 2 was weighed according to the rate and total volume of spray being prepared. The appropriate amount of was calculated to give 1% v/v of total spray volume. Adjuvant 1 was added to the spray tank, which was agitated until the mixture turned milky white. Powder 1 or Powder 2 was added to the spray container, which was then gently (not vigorously) agitated. The remaining water was added, making sure all of the powder was wet and washed off of the sides of the tank (if any had deposited there). The spray tank was then swirled or stirred for at least two minutes (2-5 minutes) to ensure good mixing. Between 5 and 60 minutes thereafter, plants were sprayed with the mixture.
(§2) Flat fan nozzles were used, producing droplet size of 100 to 500 micrometers. Spray rate of mixture was 500 liter per hectare. Backpack sprayer was used. Spraying was performed before 10:00 am.
(§3) Using methods similar to those of Example 1, wheat was sprayed at stage F10.5. Frost damage was assessed by examining the portion of the seed head damaged; the percentage of barren husks is reported. Damage from fusarium disease was assessed as a percentage of seed heads damaged by the disease organism.

wheat = assay: Wheat field treatment: yield and frost damage; conditions: for Frost Damage (percentage of barren husks): untreated 21; for Yield: untreated 3890
Procedure: as §1, §2, §3

cotton = assay: Cotton field treatment: lint yield; conditions: UTC 228.0, Adjuvant 1 only 245.1
Procedure: as §1, §2
Using methods similar to those of Example 1, cotton was also tested. Each treated group of plants was treated either two or three times, as follows:
The crop yield was assessed as the weight of lint per hectare. Treatment types, treatment amounts (grams of AI per hectare), and results were as follows. Many of the treatments lead to improvements in the yield of lint.

Fuji apple trees = assay: Fuji apples: staining after harvest and storage; conditions: 250 ppm, approximately 211 g/ha (520 g/acre) each, Untreated 12
From the text: Fuji apple trees were sprayed prior to harvest either one or two times, with spray containing 250 ppm of 1-MCP. Each spraying provided treatment of approximately 211 g/ha ([…]). After harvesting and storage, the apples were inspected for staining.

Soybean plants = assay: Soybean crop yield and protein content; conditions: for Protein %: untreated 36.93/36.87; for Yield: untreated 3607.20/3687.67
Procedure: as §1, §2
Soybean plants were treated using methods similar to those of Example 1. Treatment was performed when the plants were at one or more of the following growth stages: R2, R3, and R5.5.

[1] = test system: Golden Delicious apple trees; assay: Golden Delicious fruit drop after pre-harvest spray; conditions: NAA 20 ppm, AVG 125 ppm, Powder 1 375 g AI/ha
Procedure: as §1, §2
Using methods similar to those of Example 1, Golden Delicious apple trees were sprayed one week before the apples would normally be harvested for commercial use. The apples were left on the trees to observe postharvest drop. The spray containing Powder 1 was used to give 375 gram of AI per hectare. NAA was used at 20 ppm, and AVG was used at 125 ppm. […]

[2] = 1 g/ha, timing R2, R3, and R5.5
[3] = 10 g/ha, timing R2, R3, and R5.5
[4] = 30 g/ha, timing R2, R3, and R5.5
[5] = dosage Exaggerated 1, every 2 weeks
[6] = dosage Exaggerated 2, every 2 weeks

## CC1=CC1 [1-MCP, 1-methylcyclopropene]
Fusarium disease; 10 g/ha AI at stage F10.5
  Disease Damage (percentage of seed heads damaged): 0.5%
Fusarium disease; 25 g/ha AI at stage F10.5
  Disease Damage (percentage of seed heads damaged): 3%
wheat; 10 g/ha AI at stage F10.5
  Frost Damage (percentage of barren husks): 6%
  Yield: 4458 kg dry weight/ha
wheat; 25 g/ha AI at stage F10.5
  Frost Damage (percentage of barren husks): 3%
  Yield: 4522 kg dry weight/ha
cotton; 250 g/ha AI, type EB 2
  Lint: 245.3 kg/ha
cotton; 250 g/ha AI, type EB 3
  Lint: 250.2 kg/ha
cotton; 250 g/ha AI, type PHS 2
  Lint: 230.6 kg/ha
cotton; 250 g/ha AI, type PHS 3
  Lint: 231.8 kg/ha
cotton; 500 g/ha AI, type EB 2
  Lint: 234.2 kg/ha
cotton; 500 g/ha AI, type EB 3
  Lint: 261.3 kg/ha
cotton; 500 g/ha AI, type PHS 2
  Lint: 257.6 kg/ha
cotton; 500 g/ha AI, type PHS 3
  Lint: 262.0 kg/ha
cotton; 1250 g/ha AI, type EB 2
  Lint: 235.0 kg/ha
cotton; 1250 g/ha AI, type EB 3
  Lint: 260.7 kg/ha
cotton; 1250 g/ha AI, type PHS 2
  Lint: 253.9 kg/ha
cotton; 1250 g/ha AI, type PHS 3
  Lint: 241.4 kg/ha
Fuji apple trees; 1 spray application
  % Staining: 8.5%
Fuji apple trees; 2 spray applications
  % Staining: 3%
Soybean plants; [2]
  Protein %: 38.4%
  Yield: 3955.68 kg/ha
Soybean plants; 1 g/ha, timing R2
  Protein %: 37.88%
  Yield: 3691.44 kg/ha
Soybean plants; 1 g/ha, timing R2 and R3
  Protein %: 37.85%
  Yield: 3786.48 kg/ha
Soybean plants; 1 g/ha, timing R2 and R5.5
  Protein %: 38.45%
  Yield: 3704.04 kg/ha
Soybean plants; 1 g/ha, timing R3
  Protein %: 37.89%
  Yield: 3795.48 kg/ha
Soybean plants; 1 g/ha, timing R3 and R5.5
  Protein %: 38.75%
  Yield: 3763.80 kg/ha
Soybean plants; 1 g/ha, timing R5.5
  Protein %: 38.25%
  Yield: 3659.76 kg/ha
Soybean plants; [3]
  Protein %: 37.87%
  Yield: 4119.48 kg/ha
Soybean plants; 10 g/ha, timing R2
  Protein %: 37.67%
  Yield: 3671.64 kg/ha
Soybean plants; 10 g/ha, timing R2 and R3
  Protein %: 38.27%
  Yield: 3872.84 kg/ha
Soybean plants; 10 g/ha, timing R2 and R5.5
  Protein %: 38.63%
  Yield: 3817.80 kg/ha
Soybean plants; 10 g/ha, timing R3
  Protein %: 38.64%
  Yield: 3757.68 kg/ha
Soybean plants; 10 g/ha, timing R3 and R5.5
  Protein %: 38.3%
  Yield: 3791.52 kg/ha
Soybean plants; 10 g/ha, timing R5.5
  Protein %: 38.32%
  Yield: 3721.32 kg/ha
Soybean plants; [4]
  Protein %: 37.48%
  Yield: 4347.00 kg/ha
Soybean plants; 30 g/ha, timing R2
  Protein %: 38.08%
  Yield: 3702.24 kg/ha
Soybean plants; 30 g/ha, timing R2 and R3
  Protein %: 36.73%
  Yield: 4118.76 kg/ha
Soybean plants; 30 g/ha, timing R2 and R5.5
  Protein %: 38.56%
  Yield: 3844.44 kg/ha
Soybean plants; 30 g/ha, timing R3
  Protein %: 38.33%
  Yield: 3747.24 kg/ha
Soybean plants; 30 g/ha, timing R3 and R5.5
  Protein %: 37.87%
  Yield: 3946.68 kg/ha
Soybean plants; 30 g/ha, timing R5.5
  Protein %: 37.58%
  Yield: 3817.80 kg/ha
Soybean plants; [5]
  Protein %: 38.62%
  Yield: 3923.64 kg/ha
Soybean plants; [6]
  Protein %: 37.89%
  Yield: 4167.00 kg/ha

## O=C(O)Cc1cccc2ccccc12 [NAA, 1-naphthaleneacetic acid]
[1]; day 0 after treatment, UTC 0
  number of dropped fruit per tree: 0
[1]; day 7 after treatment, UTC 18
  number of dropped fruit per tree: 5
[1]; day 21 after treatment, UTC 45
  number of dropped fruit per tree: 20
[1]; day 28 after treatment, UTC 115
  number of dropped fruit per tree: 65
[1]; day 35 after treatment, UTC 195
  number of dropped fruit per tree: 118
[1]; day 62 after treatment, UTC 30
  number of dropped fruit per tree: 11
